# Laboratory results as given in patent US20240261333A1, “NOVEL TARGETS FOR ENHANCING ANTI-TUMOR IMMUNITY” (THE BROAD INSTITUTE, INC., priority 2021, published 2024).
# Assays:
# [1] = tested on: ESO T cells co-cultured with A375 cells; assay: IFNγ ELISA in culture media of the T cell cytotoxicity assay; format: cell-based, human; conditions: B3GNT2-overexpressing A375 pretreated with inhibitor, E:T ratio of 3; kifunensine having a stronger effect
# Procedure: Expanded T cells were thawed and maintained in culture media for 8-10 h before incubation with cancer cells. Cancer cells were seeded in 96-well plates and allowed to attach for 3-4 h before T cells were added at the appropriate effector to target cell (E:T) ratio. Paired controls with no T cells added were included for each condition. After 18 h, cancer cells were washed twice with PBS to remove T cells, passaged, and cultured for 2 days. Primary patient-derived cell models were not passaged after T cell co-culture. Viability was measured using CellTiter-Glo (Promega G7571). For each E:T ratio, percent survival was calculated as viability of the cells incubated with T cells divided by viability of the paired control that was not incubated with T cells. […]
# To challenge cells with cytokines, cells were incubated with Interferon-γ (IFNγ; Cell Signaling Technology 80385S), FasL (AdipoGen AG-40B-0130-3010), TRAIL (R&D Systems 375-TL-010), or TNF-α (AdipoGen AG-40B-0019-3010) for 24 h. […] Cell viability was measured using CellTiter-Glo (Promega G7571) and protein was harvested for Western blots. […] IFNγ in the cell culture media of the T cell cytotoxic assay was quantified using an ELISA kit (Thermo Fisher Scientific KHC4021). […]
# [2] = biological target: T1, human endoplasmic reticulum a-1,2-mannosidase I (Homo sapiens, UniProt Q9UKM7); conditions: human enzyme; cited from earlier work
# T1 sequence (Q9UKM7 1-699): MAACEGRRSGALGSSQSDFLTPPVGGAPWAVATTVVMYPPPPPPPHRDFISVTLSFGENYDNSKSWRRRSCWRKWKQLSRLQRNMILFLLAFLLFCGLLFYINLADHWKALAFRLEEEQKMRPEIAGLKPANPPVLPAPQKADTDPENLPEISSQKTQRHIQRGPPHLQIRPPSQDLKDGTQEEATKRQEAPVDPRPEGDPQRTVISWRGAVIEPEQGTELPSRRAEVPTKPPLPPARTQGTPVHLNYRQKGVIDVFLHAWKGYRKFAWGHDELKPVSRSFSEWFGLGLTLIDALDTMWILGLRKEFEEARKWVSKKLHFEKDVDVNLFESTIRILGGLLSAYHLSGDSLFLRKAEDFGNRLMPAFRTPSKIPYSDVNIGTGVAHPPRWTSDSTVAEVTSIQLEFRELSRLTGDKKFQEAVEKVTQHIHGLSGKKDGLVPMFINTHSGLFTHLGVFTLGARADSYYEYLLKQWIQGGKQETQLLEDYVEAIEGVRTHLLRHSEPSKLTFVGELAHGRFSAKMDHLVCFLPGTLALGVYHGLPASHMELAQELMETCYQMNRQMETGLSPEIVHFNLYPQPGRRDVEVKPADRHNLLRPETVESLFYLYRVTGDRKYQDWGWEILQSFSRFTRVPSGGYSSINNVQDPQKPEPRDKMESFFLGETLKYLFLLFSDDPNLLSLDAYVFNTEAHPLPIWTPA
# [3] = tested on: CCLF_PANC_0014_T primary patient-derived pancreatic adenocarcinoma; assay: T cell cytotoxicity assay, primary patient-derived pancreatic adenocarcinoma against HER2 CAR T cells; format: cell-based, human; conditions: CCLF_PANC_0014_T treated with small molecule inhibitor
# Procedure: (§1) Expanded T cells were thawed and maintained in culture media for 8-10 h before incubation with cancer cells. Cancer cells were seeded in 96-well plates and allowed to attach for 3-4 h before T cells were added at the appropriate effector to target cell (E:T) ratio. Paired controls with no T cells added were included for each condition. After 18 h, cancer cells were washed twice with PBS to remove T cells, passaged, and cultured for 2 days. Primary patient-derived cell models were not passaged after T cell co-culture. Viability was measured using CellTiter-Glo (Promega G7571). For each E:T ratio, percent survival was calculated as viability of the cells incubated with T cells divided by viability of the paired control that was not incubated with T cells. For example, CD274-overexpressing melanoma cells that were co-cultured with ESO T cells were compared to CD274-overexpressing melanoma cells that were cultured without T cells in parallel. As an alternative cytotoxicity assay, A375 cells stably expressing Gaussia luciferase were co-cultured with ESO T cells. At each time point, 10% of cell culture media was used for the Gaussia luciferase assay (Targeting Systems GAR-2B) to directly measure cytotoxicity. […]
# [4] = tested on: CCLF_MELM_0011_T primary patient-derived melanoma model; assay: T cell cytotoxicity assay, primary patient-derived melanoma model against AXL or HER2 CAR T cells; format: cell-based, human; conditions: CCLF_MELM_0011_T treated with small molecule inhibitor
# Procedure: as §1
smiles,measurement,setting,value
O=C1N[C@@H]2[C@@H](O)[C@@H](O)[C@H](O)[C@@H](CO)N2C1=O [kifunensine],T cell IFNγ secretion,[1],increased T cell IFNγ secretion
same,Ki,[2],130 nM
same,"Cell survival against T cell cytotoxicity, primary patient-derived pancreatic adenocarcinoma model",[3],reduced survival
same,"Cell survival against T cell cytotoxicity, primary patient-derived melanoma model",[4],reduced survival
